Test results taken from ChEMBL document CHEMBL4814042, “Design and synthesis of C-aryl angular luotonins via a one-pot aza-Nazarov-Friedlander sequence and their Topo-I inhibition studies along with C-aryl vasicinones and luotonins” (Bioorg Med Chem Lett, 2021).
Active and inactive are the calls of the source. The rule behind the calls is not given here.

molecular target: T1, DNA topoisomerase 1 (Homo sapiens) (UniProt P11387); assay: Inhibition of human Topoisomerase 1 at 100 uM; conditions: not given
T1 sequence (whole entry): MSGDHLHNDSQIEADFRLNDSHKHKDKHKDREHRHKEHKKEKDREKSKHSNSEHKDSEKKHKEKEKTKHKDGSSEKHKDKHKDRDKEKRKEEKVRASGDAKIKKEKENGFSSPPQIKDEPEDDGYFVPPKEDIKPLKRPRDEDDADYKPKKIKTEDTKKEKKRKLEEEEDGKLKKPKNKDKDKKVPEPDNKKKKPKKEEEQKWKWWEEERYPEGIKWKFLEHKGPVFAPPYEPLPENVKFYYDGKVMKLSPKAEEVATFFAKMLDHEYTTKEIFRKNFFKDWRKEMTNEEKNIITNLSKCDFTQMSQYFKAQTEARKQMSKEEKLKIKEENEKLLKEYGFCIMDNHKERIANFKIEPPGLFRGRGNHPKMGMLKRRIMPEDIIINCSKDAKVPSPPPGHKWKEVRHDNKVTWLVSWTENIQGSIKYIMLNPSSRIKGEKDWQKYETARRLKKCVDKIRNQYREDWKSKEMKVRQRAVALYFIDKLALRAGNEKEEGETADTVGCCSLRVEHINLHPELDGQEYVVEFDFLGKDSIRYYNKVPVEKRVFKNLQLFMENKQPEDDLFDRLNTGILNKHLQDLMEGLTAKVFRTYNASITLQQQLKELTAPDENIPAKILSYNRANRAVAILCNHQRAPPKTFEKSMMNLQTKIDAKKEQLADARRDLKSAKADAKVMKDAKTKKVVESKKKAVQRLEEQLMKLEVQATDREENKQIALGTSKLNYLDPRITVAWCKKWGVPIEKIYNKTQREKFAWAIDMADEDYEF

SMILES	inhibition
O=c1c2ccccc2nc2n1[C@H](c1ccc(C(F)(F)F)cc1)C[C@@H]2O	Active

molecular target: T1, DNA topoisomerase 1 (Homo sapiens); assay: Inhibition of human Topoisomerase 1 at 1 to 100 uM; conditions: dose 1-100 µM

SMILES	inhibition
CSc1ccc([C@@H]2C[C@H](O)c3nc4ccccc4c(=O)n32)cc1	Active

molecular target: T1, DNA topoisomerase 1 (Homo sapiens); assay: Inhibition of human Topoisomerase 1 at 0.1 to 100 uM; conditions: dose 0.1-100 µM

SMILES	inhibition
Cc1ccc(C2c3cc4ccccc4nc3-c3nc4ccccc4c(=O)n32)cc1 (configuration not stated)	Active
COc1cc(C2c3cc4ccccc4nc3-c3nc4ccccc4c(=O)n32)cc(OC)c1OC (configuration not stated)	Active
O=c1c2ccccc2nc2n1C(c1ccc(Cl)cc1)c1cc3ccccc3nc1-2 (configuration not stated)	Active
O=c1nc2n(c3ccccc13)C(c1ccc(Cl)cc1)c1cc3ccccc3nc1-2 (configuration not stated)	Active
O=c1c2ccccc2nc2n1C(c1ccc(Br)cc1)c1cc3ccccc3nc1-2 (configuration not stated)	Active
O=c1nc2n(c3ccccc13)C(c1ccccc1)c1cc3ccccc3nc1-2 (configuration not stated)	Active
COc1cc(C2c3cc4ccccc4nc3-c3nc(=O)c4ccccc4n32)cc(OC)c1OC (configuration not stated)	Active
CSc1ccc(C2c3cc4ccccc4nc3-c3nc(=O)c4ccccc4n32)cc1 (configuration not stated)	Active
O=c1nc2n(c3ccccc13)C(c1ccc(C(F)(F)F)cc1)c1cc3ccccc3nc1-2 (configuration not stated)	Active
COc1cccc(C2c3cc4ccccc4nc3-c3nc4ccccc4c(=O)n32)c1 (configuration not stated)	Active
Cc1ccc(C2c3cc4ccccc4nc3-c3nc(=O)c4ccccc4n32)cc1 (configuration not stated)	Active
O=c1nc2n(c3ccccc13)C(c1ccc(Br)cc1)c1cc3ccccc3nc1-2 (configuration not stated)	Active
O=c1nc2n(c3ccccc13)C(c1ccc(F)cc1)c1cc3ccccc3nc1-2 (configuration not stated)	Active
O=c1c2ccccc2nc2n1C(c1ccccc1)c1cc3ccccc3nc1-2 (configuration not stated)	Active
O=c1c2ccccc2nc2n1C(c1ccc(F)cc1)c1cc3ccccc3nc1-2 (configuration not stated)	Active
COc1cccc(C2c3cc4ccccc4nc3-c3nc(=O)c4ccccc4n32)c1 (configuration not stated)	Active
CSc1ccc(C2c3cc4ccccc4nc3-c3nc4ccccc4c(=O)n32)cc1 (configuration not stated)	Active
COc1ccc(C2c3cc4ccccc4nc3-c3nc4ccccc4c(=O)n32)cc1 (configuration not stated)	Active
O=c1c2ccccc2nc2n1C(c1ccc(C(F)(F)F)cc1)c1cc3ccccc3nc1-2 (configuration not stated)	Active
COc1ccc(C2c3cc4ccccc4nc3-c3nc(=O)c4ccccc4n32)cc1 (configuration not stated)	Active
Cc1ccccc1C1c2cc3ccccc3nc2-c2nc3ccccc3c(=O)n21 (configuration not stated)	Active
O=c1c2ccccc2nc2n1C(c1cccc(Br)c1)c1cc3ccccc3nc1-2 (configuration not stated)	Active
Cc1ccccc1C1c2cc3ccccc3nc2-c2nc(=O)c3ccccc3n21 (configuration not stated)	Active
O=c1nc2n(c3ccccc13)C(c1cccc(Br)c1)c1cc3ccccc3nc1-2 (configuration not stated)	Active

molecular target: T1, DNA topoisomerase 1 (Homo sapiens); assay: Inhibition of human Topoisomerase 1 at 10 to 100 uM; conditions: dose 10-100 µM

SMILES	inhibition
O=c1c2ccccc2nc2n1[C@H](c1cccc(Br)c1)C[C@@H]2O	Active
